Laboratory results published in patent US20250312469A1 (CANGET BIOTEKPHARMA, priority 2024, published 2025).

Key:
[1] = system: Panc-1, BxPC-3 and MiaPaca-2 cells; experiment: Cell monolayer wound healing test; format: cell-based, human
Procedure: Representative cell migration wound healing images were taken at zero hour and wound healing for 48-72 hours.

USP2a = biological target: T1, USP2a (Homo sapiens, UniProt O75604); experiment: ITC, Flag-USP2a; format: binding; parameters: host or cells: HEK293T
T1 sequence (O75604 1-605): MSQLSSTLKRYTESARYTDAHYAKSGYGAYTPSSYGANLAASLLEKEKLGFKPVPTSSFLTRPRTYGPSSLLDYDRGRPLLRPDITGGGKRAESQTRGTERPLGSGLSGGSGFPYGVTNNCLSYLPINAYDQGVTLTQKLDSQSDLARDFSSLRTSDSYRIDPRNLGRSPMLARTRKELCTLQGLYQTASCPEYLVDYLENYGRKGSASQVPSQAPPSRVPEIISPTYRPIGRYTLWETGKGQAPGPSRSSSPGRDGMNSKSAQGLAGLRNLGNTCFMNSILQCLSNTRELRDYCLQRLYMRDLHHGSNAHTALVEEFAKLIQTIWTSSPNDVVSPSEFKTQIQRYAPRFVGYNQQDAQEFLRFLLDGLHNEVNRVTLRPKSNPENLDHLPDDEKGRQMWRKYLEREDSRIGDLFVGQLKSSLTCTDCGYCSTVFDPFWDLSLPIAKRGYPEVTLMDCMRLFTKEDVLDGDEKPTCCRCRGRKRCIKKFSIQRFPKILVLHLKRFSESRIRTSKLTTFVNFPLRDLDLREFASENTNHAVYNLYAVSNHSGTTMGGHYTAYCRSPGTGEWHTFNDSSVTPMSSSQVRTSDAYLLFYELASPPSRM
Excerpt: Purification of Flag-tagged DDX5 (Flag-DDX5), USP2a (Flag-USP2), UbE2T (Flag-(bE2T) and topoisomerase 1 (Top1) (Flag-Top1) proteins: Flag-DDX5, Flag-USP2, Flag-UbE2T and Flag-Topl proteins were purified from the protein expression vector-transfected HEK293T cells by using the FLAG® M Purification Kit for mammalian expression systems (CELLMM2-IKT, Sigma). Briefly, sub-confluent populations of HEK293T cells were transfected with expression vectors for Flag-DDX5, Flag-USP2, Flag-UbE2T and Flag-Top1 (OriGene) using Lipofectamine 2000 (Invitrogen) as per the manufacturer's instructions. After 72h of transfection, cells were lysed in Cell Lytic M lysis reagent (Sigma Cat #C2978) containing a protease inhibitor cocktail. […]
Replacement of the Tris-HCl buffer with the PBS buffer for purified proteins for drug-protein binding analyses using isothermal titration calorimetry (ITC): After the purified proteins were eluted from the agarose resin with 3×flag peptide, the same purified protein samples from different batches were combined. […] The PBS-resuspended protein samples were recovered from the reservoir and the protein concentrations were determined using the nano-drop reader (Bio-Rad) and BCA Protein Assay (Thermo/Pierce) for double-making sure the concentration. […]

UbE2T = biological target: T2, UbE2T (Homo sapiens, UniProt Q9NPD8); experiment: UbE2T protein (WB) and mRNA (RT-PCR) in PCa cells; format: cell-based; parameters: purchased Invitrogen ProtoArray Human Protein Microarray v5.0
T2 sequence (Q9NPD8 1-197): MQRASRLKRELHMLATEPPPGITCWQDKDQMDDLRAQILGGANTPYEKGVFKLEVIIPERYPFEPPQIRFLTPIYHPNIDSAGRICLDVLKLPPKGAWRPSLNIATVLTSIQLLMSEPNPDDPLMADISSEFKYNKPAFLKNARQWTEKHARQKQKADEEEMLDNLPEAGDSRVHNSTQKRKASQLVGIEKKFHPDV
Procedure: Cells were then lysed to determine UbE2T protein expression (WB) and mRNA (real-time RT-PCR).
Twenty to fifty μg total protein from each sample (cell lysis or tumor tissue lysis) were heated at 95° C. for 5 minutes after mixing with equal volumes of 2× SDS loading buffer. […] Next, the membrane was incubated with different primary antibodies in TBS-T containing 5% BSA overnight at 4° C. in the range of dilutions from 1:500 to 1:2000 based on the antibody dilution recommended by antibody firms. After washing with TBS-T, the membrane was incubated in TBS-T buffer containing 5% skim milk and corresponding secondary antibody (1:5000) for 45-60 minutes at room temperature with shaking. Proteins of interest were detected using Western Lightning ECL-Plus (Perkin Elmer, Waltham, MA) and visualized by various times (3-120 seconds) of exposure. Actin, tubulin and/or GAPDH were detected as the internal control to normalize total protein loading for each sample.
Pertinent to this study, total RNAs were extracted from cancer cells using TRI REAGENT RT (Molecular Research Center), and 5 μg per sample was converted to cDNA with anchored oligo (dT) primers using RevertAid First Strand cDNA Synthesis Kit (Thermo Fisher Scientific, Catalog No. K1622) following the manufacturer's instructions. […] The data were analyzed using the Applied Biosystems 7300 Real Time PCR System and normalized to GAPDH.

CCC1(O)C(=O)OCc2c1cc1n(c2=O)Cc2cc3cc4c(cc3nc2-1)OCO4 (stereo not shown) [FL118]
cell migration wound healing [1]: exhibited cell migration wound healing defect
Kd (USP2a): 52.3 nM
UbE2T mRNA (UbE2T): without inhibiting its mRNA levels
UbE2T protein (UbE2T): inhibits UbE2T protein in a dose- and time-dependent manner
